{"source": "patent US10485844B2", "about": "“Methods for treating severe atopic dermatitis by administering an IL-4R inhibitor” (Regeneron Pharmaceuticals, Inc., priority 2016, dated 2019)", "test_system": "patients with moderate-to-severe AD", "assay": "Pooled subgroup analysis of two 16-week phase 3 dupilumab monotherapy trials by CsA eligibility / CsA history", "format": "in vivo, human", "settings": "for Patients achieving EASI 75, n (%) / Patients achieving IGA 0-1, n (%) / bacterial conjunctivitis rate / conjunctivitis rate: 16 weeks; for Patients achieving a ≥4-point improvement in peak pruritus NRS, n/N1 (%): baseline NRS ≥4", "procedure": "Pts (N=1379) with moderate-to-severe AD whose disease was not adequately controlled by topical medications or for whom topical treatment is medically inadvisable were randomized to receive subcutaneous injections of placebo (PBO) or dupilumab 300 mg every 2 weeks (q2w) or weekly (qw) for 16 weeks.\nSubset A pts had, on average, more severe disease than subset B pts, as assessed by Eczema Area and Severity Index (EASI; mean baseline±SD EASI score 37.2±14.69 vs 32.0±13.29; nominal p<0.0001).", "key": {"[1]": {"settings": "CSA-eligible subset, Dupilumab 300 mg Q2W"}, "[2]": {"settings": "CSA-eligible subset, Dupilumab 300 mg QW"}, "[3]": {"settings": "CSA-ineligible subset, Dupilumab 300 mg Q2W"}, "[4]": {"settings": "CSA-ineligible subset, Dupilumab 300 mg QW"}}, "data": [{"substance": "dupilumab: fully human anti-IL-4R antibody; heavy chain SEQ ID NO: 9, light chain SEQ ID NO: 10", "values": [{"measurement": "Patients achieving EASI 75, n (%)", "setting": "CSA-eligible subset, Dupilumab 300 mg Q2W (N = 353)", "result": "(49.9) %"}, {"measurement": "Patients achieving IGA 0-1, n (%)", "setting": "[1]", "result": "(38.8) %"}, {"measurement": "Patients achieving a ≥4-point improvement in peak pruritus NRS, n/N1 (%)", "setting": "[1]", "result": "(39.7) %"}, {"measurement": "Patients achieving EASI 75, n (%)", "setting": "CSA-eligible subset, Dupilumab 300 mg QW (N = 366)", "result": "(54.1) %"}, {"measurement": "Patients achieving IGA 0-1, n (%)", "setting": "[2]", "result": "(39.1) %"}, {"measurement": "Patients achieving a ≥4-point improvement in peak pruritus NRS, n/N1 (%)", "setting": "[2]", "result": "(40.5) %"}, {"measurement": "Patients achieving EASI 75, n (%)", "setting": "CSA-ineligible subset, Dupilumab 300 mg Q2W (N = 104)", "result": "(40.4) %"}, {"measurement": "Patients achieving IGA 0-1, n (%)", "setting": "[3]", "result": "(30.8) %"}, {"measurement": "Patients achieving a ≥4-point improvement in peak pruritus NRS, n/N1 (%)", "setting": "[3]", "result": "(33.7) %"}, {"measurement": "Patients achieving EASI 75, n (%)", "setting": "CSA-ineligible subset, Dupilumab 300 mg QW (N = 96)", "result": "(35.4) %"}, {"measurement": "Patients achieving IGA 0-1, n (%)", "setting": "[4]", "result": "(28.1) %"}, {"measurement": "Patients achieving a ≥4-point improvement in peak pruritus NRS, n/N1 (%)", "setting": "[4]", "result": "(36.3) %"}, {"measurement": "bacterial conjunctivitis rate", "setting": "CsA-eligible, dupilumab q2w", "result": 0.6, "unit": "%"}, {"measurement": "conjunctivitis rate", "setting": "CsA-eligible, dupilumab q2w", "result": 5, "unit": "%"}, {"measurement": "bacterial conjunctivitis rate", "setting": "CsA-eligible, dupilumab qw", "result": 1.1, "unit": "%"}, {"measurement": "conjunctivitis rate", "setting": "CsA-eligible, dupilumab qw", "result": 3.3, "unit": "%"}, {"measurement": "bacterial conjunctivitis rate", "setting": "CsA-ineligible, dupilumab q2w", "result": 3.8, "unit": "%"}, {"measurement": "conjunctivitis rate", "setting": "CsA-ineligible, dupilumab q2w", "result": 1.9, "unit": "%"}, {"measurement": "bacterial conjunctivitis rate", "setting": "CsA-ineligible, dupilumab qw", "result": 4.2, "unit": "%"}, {"measurement": "conjunctivitis rate", "setting": "CsA-ineligible, dupilumab qw", "result": 4.2, "unit": "%"}, {"measurement": "Patients achieving EASI 75, n (%)", "setting": "Subset A (inadequate response or intolerance to CsA), Dupilumab 300 mg Q2W (N = 94)", "result": "(38.3) %"}, {"measurement": "Patients achieving IGA 0-1, n (%)", "setting": "Subset A, Dupilumab 300 mg Q2W", "result": "(29.8) %"}, {"measurement": "Patients achieving a ≥4-point improvement in peak pruritus NRS, n/N1 (%)", "setting": "Subset A, Dupilumab 300 mg Q2W", "result": "(33.7) %"}, {"measurement": "Patients achieving EASI 75, n (%)", "setting": "Subset A, Dupilumab 300 mg QW (N = 83)", "result": "(34.9) %"}, {"measurement": "Patients achieving IGA 0-1, n (%)", "setting": "Subset A, Dupilumab 300 mg QW", "result": "(27.7) %"}, {"measurement": "Patients achieving a ≥4-point improvement in peak pruritus NRS, n/N1 (%)", "setting": "Subset A, Dupilumab 300 mg QW", "result": "(34.1) %"}, {"measurement": "Patients achieving EASI 75, n (%)", "setting": "Subset B (remaining study population), Dupilumab 300 mg Q2W (N = 363)", "result": "(50.1) %"}, {"measurement": "Patients achieving IGA 0-1, n (%)", "setting": "Subset B, Dupilumab 300 mg Q2W", "result": "(38.8) %"}, {"measurement": "Patients achieving a ≥4-point improvement in peak pruritus NRS, n/N1 (%)", "setting": "Subset B, Dupilumab 300 mg Q2W", "result": "(39.5) %"}, {"measurement": "Patients achieving EASI 75, n (%)", "setting": "Subset B, Dupilumab 300 mg QW (N = 379)", "result": "(53.6) %"}, {"measurement": "Patients achieving IGA 0-1, n (%)", "setting": "Subset B, Dupilumab 300 mg QW", "result": "(38.8) %"}, {"measurement": "Patients achieving a ≥4-point improvement in peak pruritus NRS, n/N1 (%)", "setting": "Subset B, Dupilumab 300 mg QW", "result": "(40.9) %"}]}]}
